Earlier results, collected in patent publication US20230381158A1, “COMPOSITIONS FOR THE TREATMENT OF NON-ALCOHOLIC FATTY LIVER DISEASE AND NON-ALCOHOLIC STEATOHEPATITIS” (LUMOS PHARMA, INC., priority 2018, published 2023).
Where a name gives a salt, the structure may show the parent alone. Ends that are not written are not given here.

How the values were obtained:
[1] = FDA warning
GH/IGF-1 axis = settings: in vivo
NAFLD patients = settings: 24 week study, 50 NAFLD patients, versus placebo
Type 2 diabetic patients = Type 2 diabetic patients on metformin and/or a sulphonylurea agent, 12 week treatment
subjects = settings: 12 subjects treated for 24 weeks
[2] = long-term or high-dose use; several conflicting results exist
[3] = tested on: adults NASH without diabetes and cirrhosis; settings: 800 mg/day, versus placebo
NASH patients = settings: 300 mg/day for more than 2 years, Japan
adult NASH patients = settings: 1 year treatment, adult NASH patients refractory to dietary intervention
[4] = five studies
[5] = compared with the control group

CCc1ccc(CCOc2ccc(CC3SC(=O)NC3=O)cc2)nc1 (centres unmarked) [pioglitazone]
risk of bladder cancer [1]: may be linked to an increased risk of bladder cancer

ghrelin (GSSFLSPEHQRVQQRKESKKPPAKLQPR; ends and bridges not checked; UniProt Q9UBU3 24-51, looked up) [hormone produced in the gastrointestinal tract that modulates GH]
insulin release from pancreatic […]-cells (pancreatic […]-cells): inhibits insulin release

CC(C)(N)C(=O)N[C@H](COCc1ccccc1)C(=O)N1CCC2(CC1)CN(S(C)(=O)=O)c1ccccc12 [ibutamoren, ibutamoren mesylate]
GH secretion (obese individuals): enhance GH secretion | lean body mass (obese individuals): increase lean body mass | serum IGF-1 (obese individuals): increase serum IGF-1 | glucose stimulated insulin secretion (pancreatic […]-cells): does not suppress | amplitude of pulsatile release of endogenous GH (GH/IGF-1 axis): enhances

N[C@@H](CC(=O)N1CCn2c(nnc2C(F)(F)F)C1)Cc1cc(F)c(F)cc1F [sitagliptin]
reducing liver fat (NAFLD patients): no better than placebo | hepatic steatosis or fibrosis (Type 2 diabetic patients): neither treatment reduced hepatic steatosis or fibrosis | fibrosis (subjects): no improvement

vitamin E
all-cause mortality, prostatic cancer, hemorrhagic stroke [2]: may increase | improvements of NASH histology [3]: superior to placebo | hepatic fibrosis (NASH patients): can ameliorate hepatic fibrosis | TGF-β1 (adult NASH patients): reduced | serum transaminase activities (adult NASH patients): reduced | hepatic steatosis [4, 5]: significantly reduced | hepatocellular ballooning [4, 5]: significantly reduced | inflammation [4, 5]: significantly reduced | serum hepatobiliary enzymes [4, 5]: significantly reduced | fibrosis improvement [4]: not confirmed
